{"source": "patent US20070160663A1", "about": "“Single unit pharmaceutical composition comprising a mixture of fenofibrate and a modified release form of a homocysteine reducing agent” (GALEPHAR PHARMACEUTICAL RESEARCH, INC., priority 2003, published 2007)", "origin": "cited, not measured here", "data": [{"smiles": "CC(C)OC(=O)C(C)(C)Oc1ccc(C(=O)c2ccc(Cl)cc2)cc1", "note": "[Fenofibrate, p-(4-chlorobenzoyl)-phenoxy isobutyrate isopropyl ester]", "values": [{"measurement": "Tmax", "setting": "after oral administration", "result": "3 to 6", "unit": "h"}]}, {"smiles": "CC(C)(Oc1ccc(C(=O)c2ccc(Cl)cc2)cc1)C(=O)O", "note": "[Fenofibric acid]", "values": [{"measurement": "Tmax (time to peak plasma level)", "setting": "after oral administration of a conventional marketed form such as Lipanthyl tablet or Fenogal capsule", "result": "3 to 6", "unit": "h"}]}, {"smiles": "Nc1nc2ncc(CNc3ccc(C(=O)N[C@@H](CCC(=O)O)C(=O)O)cc3)nc2c(=O)[nH]1", "note": "[folic acid]", "values": [{"measurement": "elimination half-life", "setting": "in vivo", "result": 3, "unit": "h"}]}]}
